Results as given in patent US11014956B2, “Compositions and methods for altering second messenger signaling” (Memorial Sloan Kettering Cancer Center, priority 2013, dated 2021).
Where a chain is given by its changes, count along the chain named. Names and notes keep the numbering of the source. “Also recorded” adds a separate entry of the source.

B1: S165A, N172A, K372A triple mutant: cGAS dsDNA-binding triple mutant (protein)
chain: PDKLKKVLDKLRLKRKDIAEAAETVAKVVERLLRRMQKRESEFKGVEQLNTGSYYEHVKISAPNEFDVMFKLEVPRIELQEYYETGAFYLVKFKRIPRGNPLSHFLEGEVLSATKMLSKFRKIIKEEVKEIKDIDVSVEKEKPGSPAVTLLIRNPEEISVDIILALESKGSWPISTKEGLPIQGWLGTKVRTNLRREPFYLVPKNAKDGNSFQGETWRLSFSHTEAYILNNHGIEKTCCESSGAKCCRKECLKLMKYLLEQLKKEFQELDAFCSYHVKTAIFHMWTQDPQDSQWDPRNLSSCFDKLLAFFLECLRTEKLDHYFIPKFNLFSQELIDRKSKEFLSKKIEYERNNGFPIFDKL
B2: S165A, N172A, Y200A triple mutant: cGAS dsDNA-binding triple mutant (protein)
chain: B1 chain with Y54A, A226K
B3: N196A, Y200A, K372A triple mutant: cGAS dsDNA-binding triple mutant (protein)
chain: B1 chain with A19S, A26N, N50A, Y54A
B4: R158A, R161A, K395A triple mutant: cGAS dsDNA-binding triple mutant (protein)
chain: B1 chain with R12A, R15A, A19S, A26N, A226K, K249A

How the values were obtained:
[1] = target: T1, cGAS (Mus musculus, UniProt Q8C6L5); experiment: cGAS activity assay, c[G(2′,5′)pA(3′,5′)p] formation by thin-layer chromatography; format: biochemical; conditions: for cyclic dinucleotide formation with the nucleotide as cGAS substrate in place of GTP or ATP (in words): cGAS plus dsDNA
T1 construct: Purified recombinant full length (fl, amino acids 1-507) and truncated (tr, amino acids 147-507) murine cGAS; His6-SUMO (N, cleaved yes); made in house; host or cells: E. coli BL21 (DE3) RIL
T1 sequence (Q8C6L5 whole entry, the tested form may be a part): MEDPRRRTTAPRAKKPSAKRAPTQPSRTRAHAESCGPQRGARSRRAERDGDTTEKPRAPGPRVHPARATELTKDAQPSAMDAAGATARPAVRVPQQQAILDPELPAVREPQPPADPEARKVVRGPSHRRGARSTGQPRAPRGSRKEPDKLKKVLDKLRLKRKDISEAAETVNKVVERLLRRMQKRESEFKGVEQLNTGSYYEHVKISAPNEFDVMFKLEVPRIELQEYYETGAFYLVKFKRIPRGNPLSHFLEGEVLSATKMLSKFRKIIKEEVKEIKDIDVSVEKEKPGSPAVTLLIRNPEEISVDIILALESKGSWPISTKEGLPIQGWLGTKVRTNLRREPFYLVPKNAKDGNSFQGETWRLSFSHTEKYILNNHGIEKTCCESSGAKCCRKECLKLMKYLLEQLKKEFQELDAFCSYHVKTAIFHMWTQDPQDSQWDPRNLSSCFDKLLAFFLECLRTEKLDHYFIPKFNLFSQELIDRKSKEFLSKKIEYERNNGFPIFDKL
From the text: (§1) To validate the structural results, we established an activity assay using thin-layer chromatography (FIG. 11) and monitored cyclic dinucleotide c[G(2′,5′)pA(3′,5′)p] formation from ATP and GTP using purified recombinant full-length and truncated cGAS proteins. cGAS required the presence of dsDNA and Mg^2+ or Mn^2+ for activity (FIG. 5A-B). […] The trace amount of c[G(2′,5′)pA(3′,5′)p]detected for the specific ssDNA used in this experiment was attributable to a stretch of sequence complementarity, and the substitution of G by 8-oxoguanine (8-oxoG) was sufficient to destabilize its predicted interaction and eliminate the residual cGAS activity.
(§2) Purified recombinant full length (fl, amino acids 1-507) and truncated (tr, amino acids 147-507) murine cGAS, including truncated mutant versions 1-6, were incubated in 20 μL reactions containing: 1 μM cGAS, 3.3 μM dsDNA, 5 mM MgCl2, 150 mM NaCl, 20 mM Tris-HCl, pH 7.5 at 25° C., 1 mM DTT, 10% glycerol, 1 mM each of nucleotides (typically ATP and GTP), and α^32P or γ^32P radiolabelled NTPs or dNTPs at 37° C. for 40 min. Reactions were stopped by addition of 20 μL of 50 mM EDTA. 2 μL of reaction solution was spotted onto high-performance TLC plates (HPTLC silica gel, 60 Å pores, F254, 10×10 cm, cat #1.05628.0001, EMD Millipore) and products were separated with Solvent 1 (NH4HCO3:C2H5OH:H2O [0.2 M:30%:70%], w:v:v) or 2 (NH4HCO3:C2H5OH:H2O [0.025 M:30%:70%], w:v:v) at 25° C. for 1 h. Reaction products were visualized by UV (254 nm) and phosphorimaging (Typhoon FLA 9500, GE Healthcare). Images were processed using Adobe Photoshop and Illustrator CS5. The TLC conditions used were largely based on a protocol established to separate 3′,5′ cAMP (Higashida et al, 2012).
(§3) The yield of c[G(2′,5′)pA(3′,5′)p] generated was calculated by densitometry analysis of TLC experiments, using FIJI (ImageJ 1.47i) or spectrophotemetrically (absorbance at 260 nm, E260=25.4×10^3) after purification from HPLC. For densitometry analyses, the fraction of α^32P-labelled c[G(2′,5′)pA(3′,5′)p] over total radioactivity per lane (c[G(2′,5′)pA(3′,5′)p]plus remaining α^32P-labelled ATP or GTP) was calculated.

[2] = test system: THP 1 cells; conditions: concentrations as low as; cited from earlier work
[3] = test system: Raw264.7 cells; conditions: concentrations as low as; cited from earlier work
[4] = test system: IFN-β luciferase reporter; experiment: IFN-β luciferase reporter assay in HEK 293 cells co-expressing cGAS and STING; format: cell-based; conditions: for cGAS function in cells (in words): alanine mutants of full-length cGAS expressed in HEK 293 cells
From the text: To assess the impact on cGAS function in cells, we generated additional alanine mutants of cGAS for expression in mammalian cells. The full-length cGAS mutants together with STING and an IFN-β luciferase reporter were transiently expressed in HEK 293 cells. […] (Arg364, Tyr 421; FIG. 2F, 4B), while single mutants of these residues only slightly impaired cGAS function (FIG. 7C). […] Similarly, conversion of the highly mobile Gly198 to sterically restricted proline abrogated cGAS activity (FIG. 13E).
3×10^4 HEK293 cells per 96-well were reverse-transfected in triplicates with a mixture of pGL3-IFNbeta-Gluc (50 ng), pLenti-EF1-Fluc (25 ng), pLenti-EF1-mSTING (25 ng) and cGAS-expression plasmid (25 ng, pMAX-cGAS WT or mutants) or Control plasmid pMAX-GFP (Amaxa) using Trans-IT LT1 (MirusBio, Madison, Wis.). After 36 h cells were lysed in passive lysis buffer. Firefly and gaussia Luciferase activities were determined on an EnVision reader (Perkin Elmer, Waltham, Mass.) using the respective substrates D-luciferin and coelenterazine (PJK GmbH, Kleinblittersdorf, Germany). IFNbeta-Gluc values were normalized to constitutive firefly luciferase values and fold induction was calculated in relation to control-plasmid pMAX-GFP.

[5] = test system: cGAS; experiment: cGAS activity assay, c[G(2′,5′)pA(3′,5′)p] formation by thin-layer chromatography; format: biochemical, mouse; conditions: for c[G(2′,5′)pA(3′,5′)p] formation by cGAS protein in vitro (in words): purified recombinant cGAS incubated with DNA
From the text: as §1, §2, §3

| Molecule | cGAS function in cells (in words) [4] | c[G(2′,5′)pA(3′,5′)p] formation by cGAS protein in vitro (in words) [5] | further results |
| --- | --- | --- | --- |
| 16 bp dsDNA: 16 bp dsDNA used for crystallography (SEQ ID NO: 47 and 48) (chain 1 AAATTGCCGAAGACGAA; chain 2 TTTCGTCTTCGGCAATT; DNA, backbone not given here) [reference compound] | – | – | stimulation of cGAS cyclic dinucleotide formation by the nucleic acid (in words) ([1]; ATP and GTP as substrates): elicited some activity |
| Nc1ncnc2c1ncn2[C@H]1C[C@H](O)[C@@H](COP(=O)(O)OP(=O)(O)OP(=O)(O)O)O1 [2′-dATP, reference compound] | – | – | cyclic dinucleotide formation with the nucleotide as cGAS substrate in place of GTP or ATP (in words) [1]: forms; also recorded: markedly reduced formation of cyclic GA-dinucleotides |
| Nc1nc2c(ncn2[C@H]2C[C@H](O)[C@@H](COP(=O)(O)OP(=O)(O)OP(=O)(O)O)O2)c(=O)[nH]1 [2′-dGTP, reference compound] | – | – | cyclic dinucleotide formation with the nucleotide as cGAS substrate in place of GTP or ATP (in words) [1]: not at all; also recorded: unable to form a cyclic dinucleotide |
| Nc1ncnc2c1ncn2[C@@H]1O[C@H](COP(=O)(O)OP(=O)(O)OP(=O)(O)O)C[C@H]1O [3′-dATP, reference compound] | – | – | cyclic dinucleotide formation with the nucleotide as cGAS substrate in place of GTP or ATP (in words) [1]: markedly reduced formation of cyclic GA-dinucleotides |
| Nc1ncnc2c1ncn2[C@@H]1O[C@H](COP(=O)(O)OP(=O)(O)O)[C@@H](O)[C@H]1O [ADP, reference compound] | – | – | cyclic dinucleotide formation with the nucleotide as cGAS substrate in place of GTP or ATP (in words) [1]: reduced levels of c[G(2′,5′)pA(3′,5′)p] |
| Nc1ncnc2c1ncn2[C@@H]1O[C@H](COP(=O)(O)O)[C@@H](O)[C@H]1O [AMP, reference compound] | – | – | cyclic dinucleotide formation with the nucleotide as cGAS substrate in place of GTP or ATP (in words) [1]: no product or intermediate formation |
| Nc1nc2c(ncn2[C@@H]2O[C@H](COP(=O)(O)OP(=O)(O)O)[C@@H](O)[C@H]2O)c(=O)[nH]1 [GDP, reference compound] | – | – | cyclic dinucleotide formation with the nucleotide as cGAS substrate in place of GTP or ATP (in words) [1]: reduced amount of the cylic-dinucleotide |
| Nc1nc2c(ncn2[C@@H]2O[C@@H]3COP(=O)(O)O[C@H]4[C@@H](O)[C@H](n5cnc6c(N)ncnc65)O[C@@H]4COP(=O)(O)O[C@H]3[C@H]2O)c(=O)[nH]1 [c[G(3′,5′)pA(3′,5′)p]] | – | – | concentration at which production of interferon is stimulated [2]: 10 nM; concentration at which production of interferon is stimulated [3]: 10 nM |
| Arg161: cGAS single alanine mutant of DNA binding residue Arg161 | not sufficient to impair cGAS activity | – | – |
| Asp213: cGAS single mutant, catalytic residue Asp213 replaced by Ala | non-functional; also recorded: functionally dead | – | – |
| Asp307: cGAS single mutant, catalytic residue Asp307 replaced by Ala | non-functional; also recorded: functionally dead | – | – |
| G198A: cGAS single mutant G198A | did not severely impair cGAS function | – | – |
| Glu211: cGAS single mutant, catalytic residue Glu211 replaced by Ala | non-functional; also recorded: functionally dead | functionally dead | – |
| S199A: cGAS single mutant S199A | did not severely impair cGAS function | retained substantial activity | – |
| Y421A, R364A: cGAS dual mutant of the base stacking residues Arg364 and Tyr421 | loss in the majority of activity | – | cGAS function in cells (in words) ([4]; Tyr 421): abrogation of cGAS activity |
| cGAS (tr): truncated murine cGAS, amino acids 147-507 | – | exhibits activity, albeit less than cGAS (fl) | – |
| cGAS: mouse cyclic GMP-AMP synthase, wild type, full length (amino acids 1-507), recombinant or expressed in cells | – | – | estimated observed rate constant ([5]; multiple turnover conditions): 0.19 min⁻¹; turnovers per enzyme molecule ([5]; multiple turnover conditions, 40 min): over 750; original ATP and GTP converted to c[G(2′,5′)pA(3′,5′)p] ([5]; multiple turnover conditions, within 40 min, n=5): Over 78%; enhanced luciferase activity compared to a control plasmid ([4]; HEK 293 cells, STING and IFN-β luciferase reporter transiently expressed): ~15 fold |
| B1 | complete loss in activity and ability to stimulate interferon production | complete loss in activity | – |
| B2 | partial loss in activity | partial loss in activity | – |
| B3 | complete loss in activity and ability to stimulate interferon production | complete loss in activity | – |
| B4 | complete loss in activity and ability to stimulate interferon production | complete loss in activity | – |
